Source: patent publication US20250042983A1, “ANTI-LCN-2 ANTIBODIES AS A TREATMENT FOR EYE DISORDERS” (UNIVERSITY OF PITTSBURGH - OF THE COMMONWEALTH SYSTEM OF …, priority 2021, published 2025)
“Also recorded” adds a separate entry of the source.

Tests used:
[1] = system: ARPE19 cells; assay: Estimation of autophagosome number in RPE cells (GFP-RFP-LC3 puncta); assay type: cell-based, human; conditions: chloroquine as positive control
Experimental: The cells were then treated with 10^7 vg/ml of an Ad-LCN-2 construct (as described above) for 48 h. […] Confocal images were acquired at 60× using Nikon NIS Elements v5.3(Nikon, Melville NY). 3D spot detection was used to segment positive structures for size, shape and intensity for RFP/GFP, and RFP only puncta were identified.

[2] = system: Cryba1 KO RPE explants; assay: Rescue experiments in RPE explants exposed to FAC and Ad-LCN-2 (Western blot, ROS); assay type: cell-based, mouse; conditions: pre-treatment, then FAC and Ad-LCN-2
Excerpt: RPE explant culture was done as previously described (Shang et al., Commun. Biol., 4(1): 850 (2021)). Briefly, eyeballs were enucleated from WT, Cryba1 KO, Sting KO or Sting^GT mice respectively, immediately after euthanasia by putting in CO2 chamber. The posterior eyecups were cut into four petals after the removal of anterior segments and the neural retina was carefully removed. The resulting RPE-Choroid-Sclera (RCS) complexes were flattened onto PVDF membranes with the RPE cells facing up and cultured as previously described. For experiments involving iron regulation, RPE explants from different genotypes were cultured in presence of ferric ammonium citrate (FAC, Sigma Aldrich, RES20400-A702X) at a dose of 250 μM for 72 h (Hadziahmetovic et al., Am. J Pathol., 179(1): 335-48 (2011)); Chothe et al., Biochem. Biophys. Res. Commun., 405(2): 244-9 (2011)), Adenovirus-LCN-2 (10^7 vg/ml, Ad-LCN-2, Vector Biolabs, ADV-263329) construct for 48 h and with or without chloroquine (ChQ; Sigma Aldrich, C6628-25G), a lysosomal blocker at a dose of 50 μM for the last 6 h of the experimental duration. For rescue experiments, Cryba1 KO explants were cultured and pre-treated with either Def (100 μM for 24 h; Sigma Aldrich, D9533-1G) or Sting inhibitor (H-151; 1 μM for 6 hours; Invitrogen, inh-h151) which was followed by FAC and Ad-LCN-2 treatment as explained above.
Whole cells lysates were made from RPE cells harvested from Cryba1^fl/fl or Cryba1 cKO mice or from in vitro RPE flat mount cultures from different experimental conditions as explained previously. The lysates were either made in 1×RIPA buffer (EMD Milipore, Cat #20-188) or NATIVE lysis buffer (Abcam, ab156035) containing 0.1% of a protease inhibitor cocktail (Sigma Aldrich, 13786) and 0.1% phosphatase inhibitor cocktail (Sigma Aldrich, P0044-5ML). The protein extracts were subjected to quantification by using the Pierce BCA Protein Assay Kit (Thermo Fisher, 23225). The RIPA protein samples were mixed with 4× protein sample buffer (Life Technologies, NP0007) containing 5% 2-mercaptoethanol (Sigma Aldrich, M6256) and heated at 95° C. for 10 min to denature. The native protein samples were mixed with NATIVE sample buffer (Bio-Rad, 1610738) at a 1:1 ratio. The native samples were loaded on NATIVE-PAGE gels (Thermo Fisher, BN1002BOX) and run using NATIVE-PAGE running buffer (Thermo Fisher, BN2001). Samples were loaded onto a 4-12% Bis-Tris Nu-PAGE gel (Invitrogen, NP0323BOX) and run with MES buffer (Invitrogen, NP0002). Proteins were transferred to nitrocellulose membranes (Invitrogen, 1B23001), which were then blocked in 5% blocking grade skim milk (Bio-Rad, 170-6404) or 5% BSA (Sigma Aldrich, A3912-50G) for phosphorylated proteins. The membranes were incubated with the appropriate primary antibody overnight followed by horseradish peroxidase-conjugated anti-rabbit (KPL, 074-1506) or anti-mouse (KPL, 074-1806) secondary antibodies for 1 h at RT. A chemiluminescence development technique was utilized to develop the blots (GE Healthcare, RPN2209) and the blots were imaged using the Azure imaging system (Azure Biosystems, USA). […]
The ROS generation in 10-month-old RPE cells from Cryba1^fl/fl and Cryba1 cKO mice was evaluated as described previously (Ghosh et al., Cell Signal., 68: 109521 (2020)). […]

[3] = system: ARPE19 cells; assay: Live cell imaging of lipid peroxidation with liperfluo dye; assay type: cell-based, human
Experimental: To assess the levels of lipid peroxidation in RPE cells, ARPE19 cells were cultured on four chambered dishes (VWR, 627871) and then either left untreated (control) or treated with 250 μM of ferric ammonium citrate (FAC) for 72 h to mimic the increased iron levels in vivo, followed by Ad-LCN-2 (10^7 vg/ml) for the last 48 h and chloroquine (50 μM) for the last 6 h of the experimental duration respectively. RSL3 (3 μM, overnight; Cayman Chemicals, 19288) was used as a positive control for ferroptosis activation. The clone #6 monoclonal antibody targeting LCN-2 (mAb; 1 μg/ml, 24 h) antibody and 25 μM (overnight) of ferrostatin-1 (Cayman Chemicals, 17729) were added to the culture to rescue ferroptosis induction in the RPE cells. Prior to imaging, the cells were incubated with Liperfluo (10 μM, Fisher Scientific, L24810) for 30 min, and washed twice with PBS before replacing the original media in each chamber. […] Liperfluo was excited using a diode-pumped light engine (SPECTRA X, Lumencor) and detected using an Prime95b sCMOS camera (Photometrics) and excitation and emission filters from Chroma. […] Data was collected and liperfluo emissions were analyzed using NIS Elements (Nikon, Inc. Melville, NY).

[4] = target: T1, Human ATG4B (Homo sapiens, UniProt Q9Y4P1); assay: Cell free ATG4B activity assay (LC3-GST cleavage); assay type: biochemical; conditions: ATG4B 0.5 μg/ml, LCN-2 1.0 μg/ml, 15 minutes; listed as human recombinant LCN-2
T1 construct: purchased Abcam ab188707
T1 sequence (Q9Y4P1 1-393): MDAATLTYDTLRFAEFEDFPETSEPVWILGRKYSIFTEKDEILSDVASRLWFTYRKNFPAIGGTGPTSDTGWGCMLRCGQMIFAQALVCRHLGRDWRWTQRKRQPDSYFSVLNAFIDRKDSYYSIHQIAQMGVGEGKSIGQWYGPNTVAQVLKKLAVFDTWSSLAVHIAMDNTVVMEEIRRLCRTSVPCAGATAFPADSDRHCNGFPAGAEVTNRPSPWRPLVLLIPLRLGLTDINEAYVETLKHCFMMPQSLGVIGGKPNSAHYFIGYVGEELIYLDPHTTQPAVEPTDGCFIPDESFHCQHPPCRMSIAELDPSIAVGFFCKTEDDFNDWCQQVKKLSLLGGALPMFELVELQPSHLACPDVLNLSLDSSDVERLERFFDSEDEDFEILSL
Experimental: ATG4B activity assay was measured by incubating recombinant human LC3-GST (Enzo, BML-UW1155-0500) at a dose of 20 μg/ml with 0.5 μg/ml of human ATG4B (Abcam, ab188707) with or without human LCN-2 (R&D Systems, 1757-LC-050) at a dose of 1 μg/ml for 15 min at room temperature (Pengo et al., Nat. Commun., 8(1): 294 (2017)). The protein samples were then mixed with 4× protein sample buffer (Life Technologies, NP0007) containing 5% 2-mercaptoethanol (Sigma Aldrich, M6256) and heated at 95° C. for 10 min to denature. The samples were then subjected to Western blot using the anti-GST primary antibody (Cell Signaling USA, 2622S) as previously explained (Ghosh et al., J. Pathol., 241(5): 583-588 (2017); Shang et al., Aging Cell, 16(2): 349-359 (2017)).

[5] = target: T1, Human ATG4B; assay: Thermal shift assay with sypro orange; assay type: binding; conditions: ATG4B incubated with human LCN-2, vs ATG4B only
Experimental: (§1) Changes in melting temperature (Tm) was assessed to evaluate the binding propensity of LCN-2 and ATG4B. Human ATG4B (Abcam, ab188707) at a dose of 0.5 μg/ml with or without 1 μg/ml of human LCN-2 (R&D Systems, 1757-LC-050) and 5 μM sypro orange (Thermo Fisher, S-6650) were incubated for 30 min at 4° C. The change in Tm was evaluated in a quantitative PCR machine (ABI Systems, USA) using a previously published method (Huynh et al., Curr. Protoc. Protein Sci., 79: 28.9.1-28.9.14 (2015); Layton et al., Protein Sci., 20(8): 1439-50 (2011)).

[6] = system: ATG4B activity; assay: GFP-LC3-RFP-ΔLC3 construct and flow cytometry (ATG4B-mediated LC3 processing); assay type: cell-based, human; conditions: recombinant LCN-2 1.0 μg/ml for 24 h; relative to control
Experimental: ARPE19 cells were cultured up to 60% confluency and then transfected with the GFP-LC3-RFP-ΔLC3 construct (Addgene, 84572), to assess ATG4B activity, using the manufacturer's protocol of the Lipofectamine 3000 Transfection Reagent (Thermo Fisher, L3000008) for 72 h (Ghosh et al., Commun. Biol., 4(1): 248 (2021)). The transfection efficiency was confirmed by visualizing the GFP and RFP signals in the transfected cells using a fluorescence microscope. This was followed by infection with an Ad-LCN-2 construct (as described above) for 48 h and treatment with recombinant human LCN-2 protein (R&D Systems, 1757-LC-050) at a dose of 1 μg/ml for 24 h in separate experiments. The cells were then scraped off the plates and were analyzed by flow cytometry using the LSR-II platform ([…]). The results were analyzed using the FlowJo software (v10.8) and the data from each group was represented as the ratio of median GFP fluorescence to RFP fluorescence (Kaizuka et al., Mol. Cell, 64(4): 835-849 (2016); Ghosh et al., Commun. Biol., 4(1): 248 (2021)).

[7] = target: T2, recombinant human ATG4B (Abcam, ab188707) (human, UniProt Q9Y4P1 1-393, limits assumed); assay: thermal shift assay with sypro orange
T2 construct: Bought recombinant protein; also called human recombinant ATG4B; Autophagy Related 4B Cysteine Peptidase
T2 sequence (looked up): T1 sequence (Q9Y4P1 1-393)
Experimental: FIGS. 2C-2D are line (2C) and dot plot (2D) graphs showing the results of a thermal shift assay. […] The melting temperature is reflective of the change in sypro orange fluorescence (arbitrary units) which was added (5 μM) to each reaction mixture. n=4. All values are Mean±SD. Significant change is indicated by *P<0.05.
as §1

Molecule: CCN(CC)CCCC(C)Nc1ccnc2cc(Cl)ccc12 (stereo not shown) [Chloroquine, chloroquine]
- number of puncta (autophagosomes) [1]: highly increased puncta

Molecule: CCc1ccc(NC(=O)Nc2c[nH]c3ccccc23)cc1 [Clone H-151]
- STING levels (Western blot) [2]: such changes were not observed
- cGAS levels (Western blot) [2]: such changes were not observed
- NLRP3 levels (Western blot) ([2]; vs vehicle (DMSO)): significantly reduced; also recorded: rescued the levels of NLRP3 inflammasome expression
- SOD1 levels (Western blot) ([2]; vs vehicle (DMSO)): decreased
- ROS levels ([2]; vs vehicle, listed as STING inhibitor): decreased; also recorded: rescued

Molecule: COC(=O)c1ccc([C@@H]2c3[nH]c4ccccc4c3C[C@@H](C(=O)OC)N2C(=O)CCl)cc1 [RSL3, reference compound]
- lipid peroxidation (liperfluo emission intensity) ([3]; RSL3 alone as positive control, compared to control): induced lipid peroxidation; also recorded: higher iperfluo emission intensity

Molecule: CCOC(=O)c1ccc(NC2CCCCC2)c(N)c1 [ferrostatin-1, reference compound]
- lipid peroxidation (liperfluo emission intensity) ([3]; ferrostatin-1 pre-treatment of FAC+Ad-LCN-2+Chloroquine (FLC) treated cells): could rescue the lipid peroxidation; also recorded: abrogated the changes

B1: human recombinant LCN-2 (R&D Systems, 1757-LC-050) (other)
chain: QDSTSDLIPAPPLSKVPLQQNFQDNQFQGKWYVVGLAGNAILREDKDPQKMYATIYELKEDKSYNVTSVLFRKKKCDYWIRTFVPGCQPGEFTLGNIKSYPGLTSYLVRVVSTNYNQHAMVFFKKVSQNREYFKITLYGRTKELTSELKENFIRFSKSLGLPENHIVFPVPIDQCIDG
notes: Bought protein; also called human LCN-2 protein; recombinant human LCN-2
- ATG4B activity (GST cleavage from LC3-GST, Western blot) [4]: Decreased GST cleavage; also recorded: could inhibit LC3 processing through the inhibition of Atg4b activity
- melting temperature (Tm) shift of ATG4B ([5]; listed as human LCN-2 protein): increase in melting temperature
- melting temperature (Tm) shift of ATG4B ([5]; listed as human recombinant LCN-2): consistent with binding between the two proteins
- GFP/RFP ratio (LC3 processing/lipidation) [6]: GFP fluorescence was increased; also recorded: increase in the GFP/RFP ratio
- binding result [7]: binds
